Laboratory results reported in patent publication US20240366807A1, “RADIOFLUORINATED AGENTS FOR PET IMAGING SELECTIVELY TARGETING FIBROBLAST ACTIVATION PROTEIN” (Trustees of tufts college, priority 2021, published 2024).
Read-outs that look alike come from different tables or passages of the source.

Legend:
recombinant human FAP = recombinant human FAP (Homo sapiens (Human), UniProt Q12884); assay: In vitro enzyme IC50 assay, FAP; format: biochemical; details: for IC50: read-out: FAP Inhibition (IC50)
Excerpt: (§1) The peptide libraries XPYSWS-NH2, Ac-XPYSWS-NH2, GXYSWS-NH2, and Ac-GXYSWS-NH2, where X represents all natural amino acids except cysteine were synthesized by the Tufts University Core Facility. The DPPIV enzyme used for the specificity studies was previously purified by our laboratory at Tufts University from human placenta, and the purified human FAP enzyme used for these studies was kindly provided by Syrxx, Inc. For the in vitro IC50 determination assays, recombinant human DPPIV, DPP9, FAP, and PREP were purchased from R&D Systems, and DPP8 was from Biomol International. Buffer systems used were A (25 mM Tris, pH 8.0), B (50 mM Tris, pH 7.5), C (50 mM Tris, 140 mM NaCl, pH 7.5), D (25 mM Tris, 250 mM NaCl, pH 7.5), and E (20 mM Tris, 20 mM KCl, pH 7.4).
(§2) In Vitro Enzyme IC50 Assays
(§3) Enzymatic activity of DPPIV, DPP8, DPP9, FAP, and PREP was measured at 25° C. on a Molecular Devices M2^e multidetection microtiter plate reader, monitoring the fluorescence at an excitation wavelength of 380 nm and an emission wavelength of 460 nm. The substrate was either H-Gly-Pro-AMC for the DPPIV, DPP8, and DPP9 assays or Z-Gly-Pro-AMC for the FAP and PREP assays.
(§4) A (DPPIV and DPP9), buffer B (DPP8), buffer C (FAP), or buffer D (PREP) and a suitable amount of inhibitor (ranging between 10^−4 and 10^−11M) in a total volume of 210 μL. The final enzyme concentrations were 0.1, 0.8, 0.4, 1.2, and 0.6 nM for DPPIV, DPP8, DPP9,
(§5) FAP, and PREP, respectively. […] Those prepared in pH 2.0 solution were preincubated at 25° C. for 4 h prior to dilution. Immediately prior to the commencement of the experiment, the 100 mM stocks were further diluted to 10^−3M in the appropriate assay buffer, from which 1:10 serial dilutions were prepared. All inhibitors were tested in triplicate.

recombinant human PREP = recombinant human PREP (Homo sapiens (Human), UniProt P48147); assay: In vitro enzyme IC50 assay, PREP; format: biochemical; details: read-out: PREP Inhibition (IC50)
Excerpt: as §1, §2, §3, §4, §5

recombinant human PREP, sequence (P48147 whole entry): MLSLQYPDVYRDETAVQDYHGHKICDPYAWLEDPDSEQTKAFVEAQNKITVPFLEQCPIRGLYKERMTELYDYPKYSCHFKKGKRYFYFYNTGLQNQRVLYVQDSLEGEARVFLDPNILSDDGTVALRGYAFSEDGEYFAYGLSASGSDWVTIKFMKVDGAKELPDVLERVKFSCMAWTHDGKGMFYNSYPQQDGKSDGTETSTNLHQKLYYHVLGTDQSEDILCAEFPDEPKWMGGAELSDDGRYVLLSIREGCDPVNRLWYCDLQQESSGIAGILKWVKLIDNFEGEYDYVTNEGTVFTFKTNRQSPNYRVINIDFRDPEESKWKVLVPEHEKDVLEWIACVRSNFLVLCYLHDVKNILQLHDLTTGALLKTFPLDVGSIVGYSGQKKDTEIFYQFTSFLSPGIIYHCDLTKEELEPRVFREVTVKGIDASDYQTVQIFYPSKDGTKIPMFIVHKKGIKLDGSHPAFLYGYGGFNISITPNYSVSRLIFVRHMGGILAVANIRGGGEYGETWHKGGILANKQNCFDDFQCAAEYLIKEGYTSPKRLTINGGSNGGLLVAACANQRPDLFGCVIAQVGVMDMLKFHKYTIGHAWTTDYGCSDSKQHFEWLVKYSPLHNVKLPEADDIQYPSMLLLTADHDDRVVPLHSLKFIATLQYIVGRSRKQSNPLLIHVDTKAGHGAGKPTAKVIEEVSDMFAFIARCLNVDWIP
recombinant human FAP, sequence (Q12884 whole entry): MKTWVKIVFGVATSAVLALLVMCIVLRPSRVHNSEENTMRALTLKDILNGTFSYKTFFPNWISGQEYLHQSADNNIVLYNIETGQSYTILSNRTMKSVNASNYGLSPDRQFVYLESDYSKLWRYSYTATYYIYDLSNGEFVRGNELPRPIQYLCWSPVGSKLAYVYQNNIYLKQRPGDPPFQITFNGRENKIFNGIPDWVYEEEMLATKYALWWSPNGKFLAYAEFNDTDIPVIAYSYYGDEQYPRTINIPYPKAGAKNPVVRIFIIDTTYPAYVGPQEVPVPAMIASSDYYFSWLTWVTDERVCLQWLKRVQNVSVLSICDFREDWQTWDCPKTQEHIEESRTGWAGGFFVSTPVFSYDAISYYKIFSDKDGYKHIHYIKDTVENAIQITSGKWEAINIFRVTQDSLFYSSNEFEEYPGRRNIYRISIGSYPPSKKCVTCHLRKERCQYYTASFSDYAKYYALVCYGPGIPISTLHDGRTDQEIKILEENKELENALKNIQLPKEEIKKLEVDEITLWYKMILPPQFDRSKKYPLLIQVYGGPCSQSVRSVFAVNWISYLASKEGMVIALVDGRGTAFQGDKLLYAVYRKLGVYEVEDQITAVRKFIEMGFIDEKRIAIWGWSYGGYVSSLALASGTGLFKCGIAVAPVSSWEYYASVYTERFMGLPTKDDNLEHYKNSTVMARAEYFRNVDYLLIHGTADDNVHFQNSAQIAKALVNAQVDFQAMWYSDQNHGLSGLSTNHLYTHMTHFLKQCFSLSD

FAP Selectivity, IC50(PREP)/IC50(FAP) (recombinant human FAP; pH2.0) | IC50 (recombinant human FAP; pH2.0) [nM] | FAP Selectivity, IC50(PREP)/IC50(FAP) (recombinant human FAP; pH7.5) | IC50 (recombinant human FAP; pH7.5) [nM] | IC50 (recombinant human PREP; pH2.0) [nM] | IC50 (recombinant human PREP; pH7.5) [nM] | Structure (SMILES)
19 | 220 | 22 | 260 | 4100 | 5700 | C[C@@H](NC(=O)c1ccc(F)cc1)C(=O)N1CCC[C@H]1B(O)O
5.6 | 390 | 4.8 | 650 | 2200 | 3100 | C[C@@H](NC(=O)c1ccccc1F)C(=O)N1CCC[C@H]1B(O)O
1.1 | 690 | 3.6 | 390 | 790 | 1400 | C[C@@H](NC(=O)c1ccc(F)cc1F)C(=O)N1CCC[C@H]1B(O)O
2.7 | 450 | 4.5 | 330 | 1200 | 1500 | C[C@@H](NC(=O)c1c(F)c(F)c(F)c(F)c1F)C(=O)N1CCC[C@H]1B(O)O
8.3 | 240 | 7.9 | 240 | 2000 | 1900 | C[C@@H](NC(=O)c1ccc(OCF)cc1)C(=O)N1CCC[C@H]1B(O)O
0.37 | 130 | 0.41 | 130 | 48 | 53 | C[C@@H](NC(=O)c1cccc(OCF)c1)C(=O)N1CCC[C@H]1B(O)O
14 | 140 | 16 | 140 | 2000 | 2300 | C[C@@H](NC(=O)c1cc(F)ncc1F)C(=O)N1CCC[C@H]1B(O)O
23 | 100 | 19 | 130 | 2300 | 2500 | C[C@@H](NC(=O)c1cc(F)nc(F)c1)C(=O)N1CCC[C@H]1B(O)O
15 | 130 | 15 | 150 | 1900 | 2200 | C[C@@H](NC(=O)c1ccnc(F)c1F)C(=O)N1CCC[C@H]1B(O)O
